DBAASP
Converted amounts (≈) assume the structure as drawn.

What was measured:
Assay in all cases: ≥ marks a high value that may be exact or a test limit, other limits are often not marked, values filed in µg/mL are converted to µM
Escherichia coli = test system: Escherichia coli
Bacillus subtilis = test system: Bacillus subtilis
[1] = test system: Staphylococcus aureus KCTC 1621
[2] = test system: Staphylococcus epidermidis KCTC 1917
[3] = test system: Pseudomonas aeruginosa KCTC 1637
[4] = test system: Escherichia coli KCTC 1682
[5] = test system: Salmonella typhimurium KCTC 1926
Staphylococcus aureus = test system: Staphylococcus aureus
[6] = test system: Bacillus subtilis KCTC 3068
Bacillus cereus = test system: Bacillus cereus
[7] = test system: Acinetobacter baumannii ATCC 19606

Row | MIC (Escherichia coli) [µM] | MIC (Bacillus subtilis) [µM] | MIC (Staphylococcus aureus) [µM] | MIC (Bacillus cereus) [µM] | Compound | also measured
1 | 15 (≈ 28.7 µg/mL) | ≥ 35 | – | – | CC[C@H](C)[C@H](N)C(=O)N[C@@H](Cc1c[nH]c2ccccc12)C(=O)N[C@@H](CC(N)=O)C(=O)N[C@@H](CCCCN)C(=O)N[C@H](C(=O)N[C@@H](C)C(=O)N[C@@H](CCCCN)C(=O)N[C@@H](CO)C(=O)N[C@H](C(=O)NCC(=O)N[C@@H](CCCCN)C(=O)N[C@H](C(=O)N[C@@H](CC(C)C)C(=O)N[C@@H](CCC(=O)O)C(=O)N[C@@H](CCCCN)C(=O)N[C@@H](C)C(=O)N[C@@H](CC(C)C)C(N)=O)C(C)C)[C@@H](C)CC)[C@@H](C)CC [IWNKIAKSIGKVLEKAL] | –
2 | 12.5 (≈ 21.5 µg/mL) | 22.5 (≈ 38.6 µg/mL) | – | – | CC[C@H](C)[C@H](N)C(=O)N[C@@H](CC(N)=O)C(=O)N[C@@H](Cc1c[nH]c2ccccc12)C(=O)N[C@@H](CCCCN)C(=O)N[C@@H](CCCCN)C(=O)N[C@H](C(=O)N[C@@H](Cc1ccccc1)C(=O)N[C@@H](CCC(=O)O)C(=O)N[C@@H](CCCCN)C(=O)N[C@H](C(=O)N[C@@H](CO)C(=O)N[C@@H](CC(N)=O)C(=O)N[C@@H](CC(C)C)C(=O)N[C@H](C(N)=O)C(C)C)C(C)C)[C@@H](C)CC [INWKKIFEKVSNLV] | –
3 | 176 (≈ 311 µg/mL) | 22.1 (≈ 39 µg/mL) | 8.26 (≈ 14.6 µg/mL) | – | CC[C@H](C)[C@H](NC(=O)[C@H](Cc1c[nH]c2ccccc12)NC(=O)[C@H](CO)NC(=O)[C@H](CO)NC(=O)[C@H](CC(C)C)NC(=O)[C@H](C)NC(=O)[C@@H]1CCCN1C(=O)[C@H](CC(C)C)NC(=O)CN)C(=O)N[C@@H](CCCCN)C(=O)N[C@@H](CCCN=C(N)N)C(=O)N[C@@H](CCCCN)C(=O)N[C@@H](CCCN=C(N)N)C(=O)N[C@@H](CCC(N)=O)C(=O)N[C@@H](CCC(N)=O)C(N)=O [GLPALSSWIKRKRQQ] | –
4 | 3.5 (≈ 6.25 µg/mL) | 0.897 (≈ 1.6 µg/mL) | 1.74 (≈ 3.1 µg/mL) | – | CC[C@H](C)[C@H](NC(=O)[C@H](CC(C)C)NC(=O)[C@H](C)NC(=O)[C@H](CO)NC(=O)[C@H](CC(C)C)NC(=O)CN)C(=O)N[C@@H](CO)C(=O)N[C@@H](Cc1c[nH]c2ccccc12)C(=O)N[C@H](C(=O)N[C@@H](CCCCN)C(=O)N[C@@H](CCCN=C(N)N)C(=O)N[C@@H](CCCCN)C(=O)N[C@@H](CCCN=C(N)N)C(=O)N[C@@H](CCC(N)=O)C(=O)N[C@@H](CCC(N)=O)C(N)=O)[C@@H](C)CC [GLSALISWIKRKRQQ] | –
5 | 49.5 (≈ 88.9 µg/mL) | 3.12 (≈ 5.6 µg/mL) | 3.12 (≈ 5.6 µg/mL) | – | CC[C@H](C)[C@H](NC(=O)[C@H](CC(C)C)NC(=O)[C@H](C)NC(=O)[C@@H]1CCCN1C(=O)[C@H](CC(C)C)NC(=O)CN)C(=O)N[C@@H](CO)C(=O)N[C@@H](Cc1c[nH]c2ccccc12)C(=O)N[C@H](C(=O)N[C@@H](CCCCN)C(=O)N[C@@H](CCCN=C(N)N)C(=O)N[C@@H](CCCCN)C(=O)N[C@@H](CCCN=C(N)N)C(=O)N[C@@H](CCC(N)=O)C(=O)N[C@@H](CCC(N)=O)C(N)=O)[C@@H](C)CC [GLPALISWIKRKRQQ] | –
6 | 27.1 (≈ 41.7 µg/mL) | 0.423 (≈ 0.65 µg/mL) | 0.845 (≈ 1.3 µg/mL) | – | CC[C@H](C)[C@H](NC(=O)[C@H](CC(C)C)NC(=O)[C@H](C)NC(=O)[C@@H]1CCCN1C(=O)[C@H](CC(C)C)NC(=O)CN)C(=O)N[C@@H](CO)C(=O)N[C@@H](Cc1c[nH]c2ccccc12)C(=O)N[C@H](C(=O)N[C@@H](CCCCN)C(=O)N[C@@H](CCCN=C(N)N)C(=O)N[C@@H](CCCCN)C(=O)N[C@@H](CCCN=C(N)N)C(N)=O)[C@@H](C)CC [GLPALISWIKRKR] | –

More lines, now with the values behind:

Row | Compound | MIC (Escherichia coli) [µM] | MIC (Bacillus subtilis) [µM] | MIC (Staphylococcus aureus) [µM] | MIC (Bacillus cereus) [µM] | also measured
7 | CC[C@H](C)[C@H](N)C(=O)N[C@@H](CC(C)C)C(=O)NCC(=O)N[C@@H](CCCCN)C(=O)N[C@H](C(=O)N[C@@H](CC(C)C)C(=O)N[C@@H](CCC(=O)O)C(=O)NCC(=O)N[C@H](C(=O)N[C@@H](CCCCN)C(=O)N[C@@H](CO)C(=O)N[C@@H](CC(C)C)C(=O)N[C@@H](Cc1ccccc1)C(N)=O)[C@@H](C)CC)[C@@H](C)CC [ILGKILEGIKSLF] | – | – | – | – | MIC [1]: 4 µM (≈ 5.72 µg/mL); MIC [2]: ≥ 32 µM; MIC [3]: 16 µM (≈ 22.9 µg/mL); MIC [4]: 16 µM (≈ 22.9 µg/mL); MIC [5]: 16 µM (≈ 22.9 µg/mL)
8 | CC[C@H](C)[C@H](NC(=O)[C@H](CCCCN)NC(=O)[C@H](CCCCN)NC(=O)[C@H](CC(C)C)NC(=O)[C@@H](N)CCCCN)C(=O)N[C@@H](Cc1c[nH]c2ccccc12)C(=O)N[C@@H](Cc1c[nH]c2ccccc12)C(=O)N[C@H](C(=O)N[C@@H](CCCCN)C(=O)N[C@H](C(=O)N[C@@H](CCCCN)C(=O)N[C@@H](CCCCN)C(N)=O)C(C)C)[C@@H](C)CC [KLKKIWWIKVKK] | – | – | – | – | MIC [1]: 3.91 µM (≈ 6.25 µg/mL); MIC [2]: 3.91 µM (≈ 6.25 µg/mL); MIC [3]: 3.91 µM (≈ 6.25 µg/mL); MIC [6]: 7.82 µM (≈ 12.5 µg/mL); MIC [4]: 7.82 µM (≈ 12.5 µg/mL); MIC [5]: 0.976 µM (≈ 1.56 µg/mL)
9 | CC[C@H](C)[C@H](NC(=O)[C@@H](NC(=O)[C@@H](NC(=O)[C@H](CCCCN)NC(=O)[C@@H](N)Cc1ccccc1)C(C)C)C(C)C)C(=O)N[C@@H](CO)C(=O)N[C@@H](CCCCN)C(=O)N1CCC[C@H]1C(=O)NCC(=O)N[C@@H](CC(C)C)C(=O)N[C@@H](CO)C(=O)N[C@H](C(=O)N[C@@H](CCCN=C(N)N)C(=O)N[C@H](C(=O)NCC(=O)N[C@H](C(=O)N[C@@H](C)C(=O)N[C@@H](CC(C)C)C(=O)N[C@H](C(=O)N[C@H](C(=O)O)[C@@H](C)O)C(C)C)[C@@H](C)O)C(C)C)C(C)C [FKVVISKPGLSVRVGTALVT] | > 61.8 | – | – | ≥ 61.8 | –
10 | CC[C@H](C)[C@H](NC(=O)[C@@H]1CCCN1C(=O)[C@H](CC(C)C)NC(=O)[C@@H](N)Cc1ccccc1)C(=O)N[C@@H](C)C(=O)NCC(=O)N[C@@H](CCCCN)C(=O)N[C@@H](CC(C)C)C(=O)N[C@@H](CC(C)C)C(=O)N[C@@H](CO)C(=O)NCC(=O)N[C@@H](CC(C)C)C(=O)N[C@@H](CO)C(=O)NCC(=O)N[C@@H](CC(C)C)C(=O)N[C@@H](CC(C)C)C(=O)O [FLPIAGKLLSGLSGLL] | – | – | – | – | MIC [7]: > 62.5 µM
11 | CC[C@H](C)[C@H](NC(=O)[C@H](CCCN=C(N)N)NC(=O)[C@H](CCCN=C(N)N)NC(=O)[C@@H](NC(=O)[C@@H](NC(=O)[C@H](CCCN=C(N)N)NC(=O)[C@H](CCCCN)NC(=O)[C@@H](N)Cc1c[nH]c2ccccc12)[C@@H](C)CC)C(C)C)C(=O)N[C@@H](Cc1c[nH]c2ccccc12)C(=O)N[C@@H](CCCN=C(N)N)C(=O)N[C@@H](Cc1c[nH]c2ccccc12)C(=O)N[C@@H](CC(C)C)C(=O)N[C@@H](CCCN=C(N)N)C(N)=O [WKRIVRRIWRWLR] | – | – | – | – | MIC [1]: 2 µM (≈ 3.85 µg/mL); MIC [2]: 8 µM (≈ 15.4 µg/mL); MIC [3]: 16 µM (≈ 30.8 µg/mL); MIC [6]: 2 µM (≈ 3.85 µg/mL); MIC [4]: 8 µM (≈ 15.4 µg/mL); MIC [5]: 4 µM (≈ 7.69 µg/mL)
12 | CC[C@H](C)[C@H](NC(=O)[C@H](CCSC)NC(=O)[C@H](CO)NC(=O)[C@@H](NC(=O)[C@H](CC(C)C)NC(=O)[C@H](CO)NC(=O)[C@@H]1CCCN1C(=O)[C@@H](NC(=O)[C@@H](NC(=O)[C@H](CCCCN)NC(=O)[C@H](CO)NC(=O)[C@H](C)NC(=O)[C@@H](NC(=O)[C@H](CCCN=C(N)N)NC(=O)CNC(=O)[C@@H](NC(=O)[C@H](Cc1ccccc1)NC(=O)[C@H](CO)NC(=O)[C@@H](N)CC(C)C)C(C)C)C(C)C)C(C)C)C(C)C)[C@@H](C)CC)C(=O)N[C@@H](CCCCN)C(=O)O [LSFVGRVASKVVPSLISMIK] | 120 (≈ 256 µg/mL) | – | – | ≥ 120 | –
13 | CC(C)C[C@H](NC(=O)[C@@H](N)Cc1ccccc1)C(=O)NCC(=O)N[C@@H](CCCCN)C(=O)N[C@H](C(=O)N[C@@H](Cc1ccccc1)C(=O)N[C@@H](CCCCN)C(=O)N[C@@H](CCCCN)C(=O)N[C@@H](C)C(=O)N[C@@H](CO)C(=O)N[C@@H](CCCCN)C(=O)N[C@H](C(=O)N[C@@H](Cc1ccccc1)C(=O)N1CCC[C@H]1C(=O)N[C@@H](C)C(=O)N[C@H](C(=O)N[C@@H](Cc1ccccc1)C(=O)NCC(=O)N[C@@H](CCCCN)C(=O)N[C@H](C(=O)O)C(C)C)C(C)C)C(C)C)C(C)C [FLGKVFKKASKVFPAVFGKV] | 14.6 (≈ 32 µg/mL) | – | > 58.2 | ≥ 58.2 | –
14 | CC(C)C[C@H](NC(=O)[C@H](CC(C)C)NC(=O)[C@H](CCCCN)NC(=O)[C@H](CC(C)C)NC(=O)[C@H](CC(C)C)NC(=O)[C@H](CCCCN)NC(=O)[C@H](CCCCN)NC(=O)[C@H](CC(C)C)NC(=O)[C@H](CC(C)C)NC(=O)[C@H](CCCCN)NC(=O)[C@H](CCCCN)NC(=O)[C@H](Cc1c[nH]c2ccccc12)NC(=O)[C@@H](N)CCCCN)C(N)=O [KWKKLLKKLLKLL] | – | – | – | – | MIC [1]: 8 µM (≈ 13.2 µg/mL); MIC [2]: 4 µM (≈ 6.61 µg/mL); MIC [3]: 8 µM (≈ 13.2 µg/mL); MIC [6]: 4 µM (≈ 6.61 µg/mL); MIC [4]: 8 µM (≈ 13.2 µg/mL); MIC [5]: 8 µM (≈ 13.2 µg/mL)
15 | CC(C)C[C@H](NC(=O)[C@@H](N)Cc1ccccc1)C(=O)NCC(=O)N[C@@H](CCCCN)C(=O)N[C@H](C(=O)N[C@@H](Cc1ccccc1)C(=O)N[C@@H](CCCCN)C(=O)NCC(=O)N[C@@H](C)C(=O)N[C@@H](CO)C(=O)N[C@@H](CCCCN)C(=O)N[C@H](C(=O)N[C@H](C(=O)N1CCC[C@H]1C(=O)N[C@@H](C)C(=O)N[C@H](C(=O)N[C@@H](Cc1ccccc1)C(=O)NCC(=O)N[C@@H](CCCCN)C(=O)N[C@H](C(=O)O)C(C)C)C(C)C)C(C)C)C(C)C)C(C)C [FLGKVFKGASKVVPAVFGKV] | > 123 | – | > 123 | ≥ 123 | –
16 | CC[C@H](C)[C@H](NC(=O)[C@@H]1CCCN1C(=O)[C@@H](NC(=O)[C@H](CO)NC(=O)[C@H](CO)NC(=O)[C@@H](N)CO)[C@@H](C)CC)C(=O)N[C@@H](CCCCN)C(=O)N[C@@H](CCSC)C(=O)N[C@H](C(=O)N[C@@H](CC(C)C)C(=O)N[C@H](C(=O)N[C@@H](CCCN=C(N)N)C(=O)N[C@@H](C)C(=O)N[C@@H](CC(C)C)C(=O)N[C@H](C(=O)N[C@@H](Cc1ccccc1)C(=O)N[C@H](C(=O)N[C@@H](CCCCN)C(=O)N[C@@H](CO)C(=O)NCC(=O)O)C(C)C)C(C)C)C(C)C)C(C)C [SSSIPIKMVLVRALVFVKSG] | > 120 | – | – | ≥ 120 | –
